Results from ChEMBL document CHEMBL4680137, “Synthesis and biological evaluation of some novel 1,2,3-triazole hybrids of myrrhanone B isolated from Commiphora mukul gum resin: Identification of potent antiproliferative leads active against prostate cancer cells (PC-3)” (Eur J Med Chem, 2020).
Calls of active or inactive are those of the source. The rule behind the calls is not given here.

Experiments:
[1] = tested on: PC-3; assay: Induction of cell cycle arrest in human PC-3 cells assessed as accumulation at G2/M phase at 10 uM after 48 hrs by propidium iodide staining based flow cytometric analysis (reference value: 20.7%); type: functional
[2] = tested on: PC-3; assay: Induction of apoptosis in human PC-3 cells assessed as late apoptotic cells at 7.5 uM after 24 hrs by Annexin VFITC/PI staining based flow cytometric analysis (reference value: 0.2%); type: functional
[3] = tested on: A549; assay: Antiproliferative activity against human A549 cells assessed as reduction in cell viability after 48 hrs by MTT assay; type: functional, cell-based; conditions: A549, 48 h
[4] = tested on: PC-3; assay: Induction of cell cycle arrest in human PC-3 cells assessed as accumulation at S phase at 10 uM after 48 hrs by propidium iodide staining based flow cytometric analysis (reference value: 7.69%); type: functional
[5] = tested on: PC-3; assay: Induction of apoptosis in human PC-3 cells assessed as condensed chromatin at 5 to 10 uM after 48 hrs by Hoechst 33258 staining fluorescence microscopic analysis; type: functional, cell-based; conditions: dose 5-10 µM
[6] = tested on: PC-3; assay: Induction of apoptosis in human PC-3 cells assessed as early apoptotic cells at 5 uM after 24 hrs by Annexin VFITC/PI staining based flow cytometric analysis (reference value: 0.1%); type: functional
[7] = tested on: PC-3; assay: Induction of apoptosis in human PC-3 cells assessed as late apoptotic cells at 5 uM after 24 hrs by Annexin VFITC/PI staining based flow cytometric analysis (reference value: 0.2%); type: functional
[8] = tested on: DU-145; assay: Antiproliferative activity against human DU-145 cells assessed as reduction in cell viability after 48 hrs by MTT assay; type: functional, cell-based; conditions: DU-145, 48 h
[9] = tested on: PC-3; assay: Induction of apoptosis in human PC-3 cells assessed as horse shoe shaped nuclei at 5 to 10 uM after 48 hrs by Hoechst 33258 staining fluorescence microscopic analysis; type: functional, cell-based; conditions: dose 5-10 µM
[10] = tested on: PC-3; assay: Induction of apoptosis in human PC-3 cells assessed as late apoptotic cells at 2.5 uM after 24 hrs by Annexin VFITC/PI staining based flow cytometric analysis (reference value: 0.2%); type: functional
[11] = tested on: PC-3; assay: Induction of apoptosis in human PC-3 cells assessed as fragmented nuclei at 5 to 10 uM after 48 hrs by Hoechst 33258 staining fluorescence microscopic analysis; type: functional, cell-based; conditions: dose 5-10 µM
[12] = tested on: PC-3; assay: Induction of apoptosis in human PC-3 cells assessed as condensed chromatin at 5 to 10 uM after 48 hrs by acridine orange and ethidium bromide staining fluorescence microscopic analysis; type: functional, cell-based; conditions: dose 5-10 µM
[13] = tested on: PC-3; assay: Induction of cell cycle arrest in human PC-3 cells assessed as accumulation at Sub-G1 phase at 10 uM after 48 hrs by propidium iodide staining based flow cytometric analysis (reference value: 3.58%); type: functional
[14] = tested on: PC-3; assay: Induction of cell cycle arrest in human PC-3 cells assessed as accumulation at S phase at 5 uM after 48 hrs by propidium iodide staining based flow cytometric analysis (reference value: 7.69%); type: functional
[15] = tested on: PC-3; assay: Induction of cell cycle arrest in human PC-3 cells assessed as accumulation at G2/M phase at 5 uM after 48 hrs by propidium iodide staining based flow cytometric analysis (reference value: 20.7%); type: functional
[16] = tested on: PC-3; assay: Antiproliferative activity against human PC3 cells assessed as reduction in cell viability after 48 hrs by MTT assay; type: functional, cell-based; conditions: PC-3, 48 h
[17] = tested on: PC-3; assay: Induction of apoptosis in human PC-3 cells assessed as necrotic cells at 5 uM after 24 hrs by Annexin VFITC/PI staining based flow cytometric analysis (reference value: 4%); type: functional
[18] = tested on: PC-3; assay: Induction of ROS generation in human PC-3 cells at 10 uM incubated for 6 hrs by DSCFDA staining based spectroflurometric method; type: functional, cell-based
[19] = tested on: PC-3; assay: Induction of cell cycle arrest in human PC-3 cells assessed as accumulation at G0/G1 phase at 5 uM after 48 hrs by propidium iodide staining based flow cytometric analysis (reference value: 67.6%); type: functional
[20] = tested on: MDA-MB-231; assay: Antiproliferative activity against human MDA-MB-231 cells assessed as reduction in cell viability after 48 hrs by MTT assay; type: functional, cell-based; conditions: MDA-MB-231, 48 h
[21] = tested on: PC-3; assay: Induction of apoptosis in human PC-3 cells assessed as necrotic cells at 2.5 uM after 24 hrs by Annexin VFITC/PI staining based flow cytometric analysis (reference value: 4%); type: functional
[22] = tested on: PC-3; assay: Induction of cell cycle arrest in human PC-3 cells assessed as accumulation at Sub-G1 phase at 5 uM after 48 hrs by propidium iodide staining based flow cytometric analysis (reference value: 3.58%); type: functional
[23] = tested on: PC-3; assay: Induction of apoptosis in human PC-3 cells assessed as viable cells at 5 uM after 24 hrs by Annexin VFITC/PI staining based flow cytometric analysis (reference value: 95.8%); type: functional; conditions: read-out: Activity
[24] = tested on: PC-3; assay: Induction of apoptosis in human PC-3 cells assessed as viable cells at 2.5 uM after 24 hrs by Annexin VFITC/PI staining based flow cytometric analysis (reference value: 95.8%); type: functional; conditions: read-out: Activity
[25] = Inhibition of LPS-induced TNF-alpha expression in human U-937 cells preincubated for 1 hr followed by LPS addition and measured after 24 hrs by ELISA; type: functional, cell-based
[26] = tested on: PC-3; assay: Induction of apoptosis in human PC-3 cells assessed as necrotic cells at 7.5 uM after 24 hrs by Annexin VFITC/PI staining based flow cytometric analysis (reference value: 4%); type: functional
[27] = tested on: L132; assay: Cytotoxicity against human L132 cells assessed as reduction in cell viability after 48 hrs by MTT assay; type: cell-based; conditions: L132, 48 h
[28] = tested on: PC-3; assay: Induction of apoptosis in human PC-3 cells assessed as early apoptotic cells at 2.5 uM after 24 hrs by Annexin VFITC/PI staining based flow cytometric analysis (reference value: 0.1%); type: functional
[29] = tested on: PC-3; assay: Induction of apoptosis in human PC-3 cells after 24 hrs by Annexin VFITC/PI staining based flow cytometric analysis; type: functional, cell-based
[30] = tested on: PC-3; assay: Induction of apoptosis in human PC-3 cells assessed as destructive fragmentation of nuclei at 5 to 10 uM after 48 hrs by acridine orange and ethidium bromide staining fluorescence microscopic analysis; type: functional, cell-based; conditions: dose 5-10 µM
[31] = tested on: PC-3; assay: Induction of mitochondrial membrane potential loss in human PC-3 cells at 10 uM after 24 hrs by JC-1 dye based flow cytometric analysis relative to control; type: functional
[32] = tested on: HT-29; assay: Antiproliferative activity against human HT-29 cells assessed as reduction in cell viability after 48 hrs by MTT assay; type: functional, cell-based; conditions: HT-29, 48 h
[33] = tested on: PC-3; assay: Induction of apoptosis in human PC-3 cells assessed as early apoptotic cells at 7.5 uM after 24 hrs by Annexin VFITC/PI staining based flow cytometric analysis (reference value: 0.1%); type: functional
[34] = tested on: SiHa; assay: Antiproliferative activity against human SiHa cells assessed as reduction in cell viability after 48 hrs by MTT assay; type: functional, cell-based
[35] = tested on: U-87 MG; assay: Antiproliferative activity against human U87 cells assessed as reduction in cell viability after 48 hrs by MTT assay; type: functional, cell-based, U-87MG ATCC
[36] = tested on: PC-3; assay: Induction of cell cycle arrest in human PC-3 cells assessed as accumulation at G0/G1 phase at 10 uM after 48 hrs by propidium iodide staining based flow cytometric analysis (reference value: 67.6%); type: functional
[37] = tested on: PC-3; assay: Induction of apoptosis in human PC-3 cells assessed as viable cells at 7.5 uM after 24 hrs by Annexin VFITC/PI staining based flow cytometric analysis (reference value: 95.8%); type: functional; conditions: read-out: Activity
[38] = Inhibition of LPS-induced IL-1beta expression in human U-937 cells preincubated for 1 hr followed by LPS addition and measured after 24 hrs by ELISA; type: functional, cell-based
[39] = Inhibition of Saccharomyces cerevisiae alpha-glucosidase using p-nitophenyl alpha […]D-glucoside incubated for 45 mins

Row | SMILES | Activity [1] | Activity [2] | IC50 [3] | Activity [4] | Activity [5] | Activity [6] | Activity [7] | IC50 [8] | Activity [9] | Activity [10] | Activity [11] | Activity [12] | Activity [13] | Activity [14] | Activity [15] | IC50 [16] | IC50 [20] | IC50 [27] | IC50 [32] | IC50 [34] | also measured
1 | C/C(=C\CC/C(C)=C/CC[C@@H]1[C@@]2(C)CCC(=O)C(C)(C)[C@H]2CC[C@@]1(C)O)CC/C=C(\C)C(=O)OCc1cn(C[C@@H]2O[C@H](n3ccc(=O)[nH]c3=O)C[C@H]2O)nn1 | 11.1% | 12.8% | 28.1 µM | 6.76% | Active | 59.4% | 12.5% | 33.1 µM | Active | 8.6% | Active | Active | 40.8% | 8.38% | 16.6% | 10.8 µM | 26.3 µM | 148 µM | 34.1 µM | 29.3 µM | Activity [17]: 1%; Activity [18]: Active; Activity [19]: 68.7%; Activity [21]: 0.9%; Activity [22]: 5.96%; viability at 5 µM [23]: 27.1%; viability at 2.5 µM [24]: 26.9%; IC50 [25]: 8.88 µM; Activity [26]: 1%; Activity [28]: 64.6%; Activity [29]: Dose-dependent effect; Activity [30]: Active; Activity [31]: 38%; Activity [33]: 58.3%; IC50 [35]: 75.8 µM; Activity [36]: 41%; viability at 7.5 µM [37]: 27.9%; IC50 [38]: 9.25 µM
2 | C/C(=C\CC/C(C)=C/CC[C@@H]1[C@@]2(C)CCC(=O)C(C)(C)[C@H]2CC[C@@]1(C)O)CC/C=C(\C)C(=O)O | – | – | > 150 µM | – | – | – | – | > 150 µM | – | – | – | – | – | – | – | 40.7 µM | 90.5 µM | > 150 µM | 56.6 µM | 96.7 µM | IC50 [39]: 167 µM; IC50 [25]: 15.6 µM
3 | C/C(=C\CC/C(C)=C/CC[C@@H]1[C@@]2(C)CCC(=O)C(C)(C)[C@H]2CC[C@@]1(C)O)CC/C=C(\C)C(=O)OCc1cn(-c2cccc(O)c2)nn1 | 23.4% | 12.1% | 42.8 µM | 7.54% | Active | 58.8% | 10.9% | 28.4 µM | Active | 8.7% | Active | Active | 2.16% | 8.26% | 22.7% | 6.57 µM | 139 µM | 146 µM | 38.6 µM | 48 µM | IC50 [39]: 14.2 µM; Activity [17]: 1%; Activity [18]: Active; Activity [19]: 66.5%; Activity [21]: 0.8%; Activity [22]: 2.09%; viability at 5 µM [23]: 29.3%; viability at 2.5 µM [24]: 27.7%; Activity [26]: 1.4%; Activity [28]: 62.9%; Activity [29]: Dose-dependent effect; Activity [30]: Active; Activity [31]: 22%; Activity [33]: 54.8%; IC50 [35]: > 150 µM; Activity [36]: 66.5%; viability at 7.5 µM [37]: 31.7%
